From US10028508B2, “Use of active compound compositions” (BAYER CROPSCIENCE AKTIENGESELLSCHAFT, priority 2014, dated 2018)
Where two headings read alike, the source gives them in different places.

Tested on: Anopheles funestus metabolic-resistant strain FUMOZ-R
Assay: Metabolic-Resistant Anopheles Test (mortality on treated tile, wood, concrete)
Assay type: in vivo
Details: for mortality at 100 mg/m2: Clothianidin 100 mg/m2, read-out: Mortality Effect %; for mortality at 200 mg/m2: Clothianidin 200 mg/m2, read-out: Mortality Effect %
Protocol: To produce a suitable preparation of active compound combination the active compounds deltamethrin and clothanidin were dissolved in acetone (for the control group only one active compound was dissolved in acetone). The active compound combination preparation (and the active compound preparations) were pipetted onto a glazed tile, wood and concrete and, after drying, adult mosquitoes of the species Anopheles funestus metabolic-resistant strain FUMOZ-R (Hunt et al., Med Vet Entomol. 2005 September; 19(3):271-5) are placed onto the treated tile, wood and concrete. The exposition time is 30 minutes.
1 hour, 2 hour, 4 hour, 24 hours after contact to the treated surface, the mortality proportion of the test animals in % is determined. Here, 100% means that all mosquitoes have been killed; 0% means that none of the mosquitoes has been killed. The treated tile, wood and concrete was stored under stress conditions (30° C./80% rh). Measurement with the treated tile, wood and concrete was repeated 5 weeks (Table 1), 11 weeks (Table 2) and 60 weeks (Table 3) after the treatment with the active compound combination.

[1] = 5 weeks after treatment, Concrete, 1 h after contact
[2] = 5 weeks after treatment, Concrete, 2 h after contact
[3] = 5 weeks after treatment, Concrete, 4 h after contact
[4] = 5 weeks after treatment, Concrete, 24 h after contact
[5] = 5 weeks after treatment, Tile, 1 h after contact
[6] = 5 weeks after treatment, Tile, 2 h after contact
[7] = 5 weeks after treatment, Tile, 4 h after contact
[8] = 5 weeks after treatment, Tile, 24 h after contact
[9] = 5 weeks after treatment, Wood, 1 h after contact
[10] = 5 weeks after treatment, Wood, 2 h after contact
[11] = 5 weeks after treatment, Wood, 4 h after contact
[12] = 5 weeks after treatment, Wood, 24 h after contact
[13] = 11 weeks after treatment, Concrete, 1 h after contact
[14] = 11 weeks after treatment, Concrete, 2 h after contact
[15] = 11 weeks after treatment, Concrete, 4 h after contact
[16] = 11 weeks after treatment, Concrete, 24 h after contact
[17] = 11 weeks after treatment, Tile, 1 h after contact
[18] = 11 weeks after treatment, Tile, 2 h after contact
[19] = 11 weeks after treatment, Tile, 4 h after contact
[20] = 11 weeks after treatment, Tile, 24 h after contact
[21] = 11 weeks after treatment, Wood, 1 h after contact
[22] = 11 weeks after treatment, Wood, 2 h after contact
[23] = 11 weeks after treatment, Wood, 4 h after contact
[24] = 11 weeks after treatment, Wood, 24 h after contact
[25] = 60 weeks after treatment, Concrete, 1 h after contact
[26] = 60 weeks after treatment, Concrete, 2 h after contact
[27] = 60 weeks after treatment, Concrete, 4 h after contact
[28] = 60 weeks after treatment, Concrete, 24 h after contact
[29] = 60 weeks after treatment, Tile, 1 h after contact
[30] = 60 weeks after treatment, Tile, 2 h after contact
[31] = 60 weeks after treatment, Tile, 4 h after contact
[32] = 60 weeks after treatment, Tile, 24 h after contact
[33] = 60 weeks after treatment, Wood, 1 h after contact
[34] = 60 weeks after treatment, Wood, 2 h after contact
[35] = 60 weeks after treatment, Wood, 4 h after contact
[36] = 60 weeks after treatment, Wood, 24 h after contact

CN/C(=N\[N+](=O)[O-])NCc1cnc(Cl)s1 [Clothianidin, clothianidin]
15%: mortality at 100 mg/m2 [1]
83%: mortality at 200 mg/m2 [4] | mortality at 200 mg/m2 [16]
47%: mortality at 200 mg/m2 [15]
90%: mortality at 200 mg/m2 [8]
7%: mortality at 100 mg/m2 [6] | mortality at 100 mg/m2 [7] | mortality at 100 mg/m2 [9] | mortality at 200 mg/m2 [9] | mortality at 100 mg/m2 [17] | mortality at 200 mg/m2 [17] | mortality at 200 mg/m2 [26] | mortality at 200 mg/m2 [31]
40%: mortality at 200 mg/m2 [24]
23%: mortality at 100 mg/m2 [13]
43%: mortality at 200 mg/m2 [19] | mortality at 200 mg/m2 [32]
27%: mortality at 100 mg/m2 [11] | mortality at 100 mg/m2 [24]
67%: mortality at 100 mg/m2 [14]
73%: mortality at 100 mg/m2 [15] | mortality at 200 mg/m2 [20]
93%: mortality at 100 mg/m2 [4] | mortality at 100 mg/m2 [12] | mortality at 200 mg/m2 [12] | mortality at 100 mg/m2 [16]
20%: mortality at 100 mg/m2 [10] | mortality at 200 mg/m2 [11] | mortality at 200 mg/m2 [18] | mortality at 100 mg/m2 [27]
63%: mortality at 200 mg/m2 [28]
37%: mortality at 100 mg/m2 [20] | mortality at 100 mg/m2 [28]
10%: mortality at 100 mg/m2 [2] | mortality at 200 mg/m2 [7] | mortality at 200 mg/m2 [10] | mortality at 100 mg/m2 [18] | mortality at 100 mg/m2 [36]
30%: mortality at 100 mg/m2 [3] | mortality at 200 mg/m2 [3]
13%: mortality at 100 mg/m2 [19] | mortality at 200 mg/m2 [21]
0%: mortality at 100 mg/m2 [5] | mortality at 200 mg/m2 [5] | mortality at 200 mg/m2 [6] | mortality at 100 mg/m2 [21] | mortality at 100 mg/m2 [25] | mortality at 200 mg/m2 [25] | mortality at 100 mg/m2 [29] | mortality at 200 mg/m2 [29] | mortality at 100 mg/m2 [30] | mortality at 100 mg/m2 [31] | mortality at 100 mg/m2 [33] | mortality at 200 mg/m2 [33] | mortality at 100 mg/m2 [34] | mortality at 100 mg/m2 [35]
3%: mortality at 200 mg/m2 [1] | mortality at 200 mg/m2 [13] | mortality at 100 mg/m2 [22] | mortality at 100 mg/m2 [26] | mortality at 200 mg/m2 [30] | mortality at 200 mg/m2 [34] | mortality at 200 mg/m2 [35]
17%: mortality at 200 mg/m2 [2] | mortality at 200 mg/m2 [14] | mortality at 200 mg/m2 [22] | mortality at 200 mg/m2 [23] | mortality at 200 mg/m2 [27] | mortality at 100 mg/m2 [32] | mortality at 200 mg/m2 [36]
33%: mortality at 100 mg/m2 [23]
80%: mortality at 100 mg/m2 [8]
